What was measured:
[1] = system: pERK1/2(THR202/TYR204) level in AsPC-1 cell line; experiment: KRAS G12D pERK assay; type: cell-based; conditions: Homo sapiens, ASPC1, 2 h, AsPC-1 cells, 2 h compound treatment, HTRF
Method in brief: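 AsPC-1 (KRAS G12D) cells, 30000/well, seeded overnight, then treated 2 h with a 10-point series at 0 to 10 μM final. Lysate pERK1/2 (Thr202/Tyr204) detected by HTRF after overnight antibody incubation at room temperature; IC50 from percent inhibition versus log concentration.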

[2] = Gastrointestinal accumulation and toxicity, mono-basic vs dibasic G12D inhibitors (method not described); type: in vivo; conditions: compared to dibasic G12D inhibitors (e.g., Example 17)
Mouse and rat PK study = type: in vivo, male CD-1 mice or SD-JVC rats; conditions: compared to dibasic G12D inhibitors (e.g., Example 17)
Description: The pharmacokinetics of compounds were evaluated in male CD-1 mice or SD-JVC rats via intravenous and oral administration. For intravenous administration study, test compounds were dissolved in DMA:30% Solutol HS 15(w/v): Saline (20:20:60, by volume) and injected with a 1 mg/kg dose via tail vein. For oral administration study, test compounds were dissolved in 0.5% MC or PEG400/Phosal 50 PG/EtOH (30/60/10, by volume) and administrated to mice at 10 mg/kg or 30 mg/kg by gavage. Animals will be grouped and treated according to body weight. At the time points after dosing (5 (IV only), 15, and 30 min and 1, 2, 4, 8 and 24 h after administration), Rat blood samples will be collected from JVC, Mice will be anesthetized by isoflurane and blood samples will be collected from orbital bleeding. Blood samples will be collected into 1.5 mL EDTA.K2 coated EP tube. Approximately 50 μL blood (Mouse) and 150 μL blood (Rat) were collected at each time point and placed on ice, then centrifuge at 5600 rpm 7 min at 4° C. to obtain plasma. Plasma will be transferred into new tube and stored at −20° C. or dry ice temporary. The samples will be stored at −80° C. until ex vivo PK assay.
Plasma concentrations were determined via the following sample processing method and measurement conditions. An aliquot of 10 μL sample was added with 200 μL IS (Terfenadine, 5 ng/mL) in ACN. […]

[3] = system: ERK1/2 phosphorylation in SW1990 tumors; experiment: SW1990 PD studies; type: in vivo, Female NCG mice; conditions: oral administration
Description: Female NCG mice were subcutaneously implanted with 5×10^6 SW1990 cells per 200 μL PBS/matrigel in the right flank. After inoculation, when tumors reached a mean volume of approximately 350-450 mm^3 in size, mice were randomized into treatment groups. Randomized mice would receive a single dose of vehicle consisting of 0.5% MC or test compounds at various dose (e.g. 30, 50, or 100 mg/kg) by oral administration. Plasma was collected at 0.5, 2, 4, and 7 hours, and tumor was collected at 7 hours after dosing to determine exposure levels. Tumor fragments were snap frozen in homogenization tubes with liquid nitrogen and homogenized with T-PER Tissue Protein Extraction Buffer with protease and phosphatase inhibitors added fresh before use. Tumor lysates were then analyzed for ERK1/2 phosphorylation.

Row | Structure (SMILES) | IC50 [1] [nM] | gastrointestinal accumulation [2] | toxicity [2] | oral exposure (Mouse and rat PK study) | oral pharmacodynamic effects [3]
1 | Nc1cc(Cl)c(C(F)(F)F)c(-c2nc3c4c(nc(OCC56COC(C5)C6)nc4c2F)N2C[C@H]4CC[C@H](N4)C2CCO3)c1 (stereo partly drawn) [Example 23, 3-((7S,10R)-13-((2-oxabicyclo[2.1.1]hexan-4-yl)methoxy)-1-fluoro-5,6,6a,7,8,9,10,11-octahydro-4-oxa-3,11a,12,14,15-pentaaza-7,10-methanocyclohepta[4,5]cycloocta[1,2,3-de]naphthalen-2-yl)-5-chloro-4-(trifluoromethyl)aniline] | 114 | reduced gastrointestinal accumulation | reduced toxicity | enhanced oral exposure | 
2 | Nc1cc(Cl)c(C(F)(F)F)c(-c2nc3c4c(nc(OCC56CCC(C5)OC6)nc4c2F)N2C[C@H]4CC[C@H](N4)[C@H]2CCO3)c1 [Example 41, 3-((6aR,7S,10R)-13-((2-oxabicyclo[2.2.1]heptan-4-yl)methoxy)-1-fluoro-5,6,6a,7,8,9,10,11-octahydro-4-oxa-3,11a,12,14,15-pentaaza-7,10-methanocyclohepta[4,5]cyclo-octa[1,2,3-de]naphthalen-2-yl)-5-chloro-4-(trifluoromethyl)aniline] | 112 |  |  |  | enhanced oral pharmacodynamic effects
3 | Cc1cc(N)cc(-c2nc3c4c(nc(OCC5(C(F)F)COC5)nc4c2F)N2C[C@H]4CC[C@H](N4)[C@H]2CCO3)c1C(F)(F)F [Example 26, 3-((6aR,7S,10R)-13-((3-(difluoromethyl)oxetan-3-yl)methoxy)-1-fluoro-5,6,6a,7,8,9,10,11-octahydro-4-oxa-3,11a,12,14,15-pentaaza-7,10-methanocyclohepta[4,5]cycloocta[1,2,3-de]naphthalen-2-yl)-5-methyl-4-(trifluoromethyl)aniline] | 142 |  |  |  | enhanced oral pharmacodynamic effects
4 | Nc1cc(Cl)c(C(F)(F)F)c(-c2nc3c4c(nc(OCC5(C(F)F)COC5)nc4c2F)N2C[C@H]4CC[C@H](N4)[C@H]2CCO3)c1 [Example 32, 3-chloro-5-((6aR,7S,10R)-13-((3-(difluoromethyl)oxetan-3-yl)methoxy)-1-fluoro-5,6,6a,7,8,9,10,11-octahydro-4-oxa-3,11a,12,14,15-pentaaza-7,10-methanocyclohepta[4,5]cyclo-octa[1,2,3-de]naphthalen-2-yl)-4-(trifluoromethyl)aniline] | 117 |  |  |  | enhanced oral pharmacodynamic effects
5 | Cc1cc(N)cc(-c2nc3c4c(nc(OCC56COC(C(F)F)(C5)C6)nc4c2F)N2C[C@H]4CC[C@H](N4)[C@H]2CCO3)c1C(F)(F)F [Example 29, 3-((6aR,7S,10R)-13-((1-(difluoromethyl)-2-oxabicyclo[2.1.1]hexan-4-yl)methoxy)-1-fluoro-5,6,6a,7,8,9,10,11-octahydro-4-oxa-3,11a,12,14,15-pentaaza-7,10-methanocyclohepta[4,5]cyclo-octa[1,2,3-de]naphthalen-2-yl)-5-methyl-4-(trifluoromethyl)aniline] | 92 |  |  |  | enhanced oral pharmacodynamic effects
